Laboratory results published in patent US20250059182A1, “SOS1 INHIBITORS” (Mirati Therapeutics, Inc., priority 2021, published 2025).

Legend:
pERK in MKN1 cells = assay: pERK inhibition, In-Cell Western (LI-COR Odyssey), MKN1 cells; format: cell-based; conditions: Homo sapiens, MKN-1, Table B; MKN1 or H358 cells (table does not say which); 0.5-1 hour incubation; read-out: IC50 (nM), pERK inhibition
Outline: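 IC50 was fitted from % pERK inhibition, calculated as the GAPDH-normalised pERK signal of each well divided by the vehicle mean. Signal was imaged at 700 and 800 nm after fixation, methanol permeabilisation and dual antibody staining. Before fixation, MKN1 cells had received compound for about 0.5–1 h at 37 °C, top concentration 10 µM, nine 3-fold dilutions.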

[1] = molecular target: T1, recombinant human SOS1 polypeptide (amino acids 560-1049) (Homo sapiens, UniProt Q07889); assay: HTRF displacement assay: inhibition of labeled tracer binding to SOS1; conditions: Table A, Morrison equation for competitive binding
T1 construct: corresponding to amino acids 560-1049, expressed in E. Coli; made in house; host or cells: E. coli
T1 sequence (Q07889 560-1049): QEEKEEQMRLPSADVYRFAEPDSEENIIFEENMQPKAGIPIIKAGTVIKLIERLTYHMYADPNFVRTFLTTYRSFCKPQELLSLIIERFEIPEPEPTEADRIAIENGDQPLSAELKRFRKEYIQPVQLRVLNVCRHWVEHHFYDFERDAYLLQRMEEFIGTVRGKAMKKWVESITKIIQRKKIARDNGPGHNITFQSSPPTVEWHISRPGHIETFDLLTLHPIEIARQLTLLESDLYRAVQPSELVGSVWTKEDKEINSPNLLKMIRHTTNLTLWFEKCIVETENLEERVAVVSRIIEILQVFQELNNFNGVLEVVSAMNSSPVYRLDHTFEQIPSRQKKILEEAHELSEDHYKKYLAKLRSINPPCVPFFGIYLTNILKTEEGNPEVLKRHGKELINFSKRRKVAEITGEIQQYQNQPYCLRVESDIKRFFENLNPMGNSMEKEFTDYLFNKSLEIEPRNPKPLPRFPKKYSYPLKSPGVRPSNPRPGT

| SMILES | IC50 (pERK in MKN1 cells) [nM] | Ki [1] [nM] |
| --- | --- | --- |
| Cc1c(C#N)cccc1[C@@H](C)Nc1nnc(C)c2cnc(N3CCC4(CN(C)C4)C3)cc12 [Example 1-25, (R)-2-methyl-3-(1-((4-methyl-7-(2-methyl-2,6-diazaspiro[3.4]octan-6-yl)pyrido[3,4-d]pyridazin-1-yl)amino)ethyl)benzonitrile] | 68.6 | 0.492 |
| Cc1nnc(N[C@H](C)c2cccc(C(F)(F)F)c2F)c2cc(N3CCC4(CN(C)C4)C3)ncc12 [Example 1-26, (R)-N-(1-(2-fluoro-3-(trifluoromethyl)phenyl)ethyl)-4-methyl-7-(2-methyl-2,6-diazaspiro[3.4]octan-6-yl)pyrido[3,4-d]pyridazin-1-amine] | 30.8 | 0.348 |
| CCN1CC2(C1)CN(c1cc3c(N[C@H](C)c4cccc(C(F)(F)F)c4F)nnc(C)c3cn1)C2 [Example 1-27, (R)-7-(6-ethyl-2,6-diazaspiro[3.3]heptan-2-yl)-N-(1-(2-fluoro-3-(trifluoromethyl)phenyl)ethyl)-4-methylpyrido[3,4-d]pyridazin-1-amine] | 18.6 | 0.27 |
| Cc1c([C@@H](C)Nc2nnc(C)c3cnc(N4CC5(CN(C)C5)C4)cc23)cccc1C(F)(F)F [Example 1-32, (R)-4-methyl-N-(1-(2-methyl-3-(trifluoromethyl)phenyl)ethyl)-7-(6-methyl-2,6-diazaspiro[3.3]heptan-2-yl)pyrido[3,4-d]pyridazin-1-amine] | 32.3 | 0.163 |
| Cc1c(C#N)cccc1[C@@H](C)Nc1nnc(C)c2cnc(N3CCN(C4CC4)CC3)cc12 [Example 1-33, (R)-3-(1-((7-(4-cyclopropylpiperazin-1-yl)-4-methylpyrido[3,4-d]pyridazin-1-yl)amino)ethyl)-2-methylbenzonitrile] | 87.8 | 1.87 |
| Cc1c(C#N)cccc1[C@@H](C)Nc1nnc(C)c2cnc(N3C[C@@H]4C[C@H]3CN4C)cc12 [Example 1-34, 2-methyl-3-((R)-1-((4-methyl-7-((1S,4S)-5-methyl-2,5-diazabicyclo[2.2.1]heptan-2-yl)pyrido[3,4-d]pyridazin-1-yl)amino)ethyl)benzonitrile] | 49.2 | 2.25 |
| Cc1c(C#N)cccc1[C@@H](C)Nc1nnc(C)c2cnc(N3C[C@H]4C[C@@H]3CN4C)cc12 [Example 1-35, 2-methyl-3-((R)-1-((4-methyl-7-((1R,4R)-5-methyl-2,5-diazabicyclo[2.2.1]heptan-2-yl)pyrido[3,4-d]pyridazin-1-yl)amino)ethyl)benzonitrile] | 18.4 | 1.19 |
| CCN1C[C@@H]2C[C@H]1CN2c1cc2c(N[C@H](C)c3cccc(C#N)c3C)nnc(C)c2cn1 [Example 1-36, 3-((R)-1-((7-((1S,4S)-5-ethyl-2,5-diazabicyclo[2.2.1]heptan-2-yl)-4-methylpyrido[3,4-d]pyridazin-1-yl)amino)ethyl)-2-methylbenzonitrile] | 75.5 | 3.43 |
| CCN1C[C@H]2C[C@@H]1CN2c1cc2c(N[C@H](C)c3cccc(C#N)c3C)nnc(C)c2cn1 [Example 1-37, 3-((R)-1-((7-((1R,4R)-5-ethyl-2,5-diazabicyclo[2.2.1]heptan-2-yl)-4-methylpyrido[3,4-d]pyridazin-1-yl)amino)ethyl)-2-methylbenzonitrile] | 19.7 | 1.61 |
| CCN1CC[C@H](Nc2cc3c(N[C@H](C)c4cccc(C#N)c4C)nnc(C)c3cn2)C1 [Example 1-38, 3-((R)-1-((7-(((S)-1-ethylpyrrolidin-3-yl)amino)-4-methylpyrido[3,4-d]pyridazin-1-yl)amino)ethyl)-2-methylbenzonitrile] | 221 | 5.6 |
| CCN1CC[C@@H](Nc2cc3c(N[C@H](C)c4cccc(C#N)c4C)nnc(C)c3cn2)C1 [Example 1-39, 3-((R)-1-((7-(((R)-1-ethylpyrrolidin-3-yl)amino)-4-methylpyrido[3,4-d]pyridazin-1-yl)amino)ethyl)-2-methylbenzonitrile] | 126 | 4 |
| Cc1c(C#N)cccc1[C@@H](C)Nc1nnc(C)c2cnc(N(C)C3CCN(C)CC3)cc12 [Example 1-40, (R)-2-methyl-3-(1-((4-methyl-7-(methyl(1-methylpiperidin-4-yl)amino)pyrido[3,4-d]pyridazin-1-yl)amino)ethyl)benzonitrile] | 45.4 | 0.805 |
| Cc1c(C#N)cccc1[C@@H](C)Nc1nnc(C)c2cnc(NC3CCN(C)CC3)cc12 [Example 1-41, (R)-2-methyl-3-(1-((4-methyl-7-((1-methylpiperidin-4-yl)amino)pyrido[3,4-d]pyridazin-1-yl)amino)ethyl)benzonitrile] | 272 | 4.49 |
| CCN1CCC(Nc2cc3c(N[C@H](C)c4cccc(C#N)c4C)nnc(C)c3cn2)CC1 [Example 1-42, (R)-3-(1-((7-((1-ethylpiperidin-4-yl)amino)-4-methylpyrido[3,4-d]pyridazin-1-yl)amino)ethyl)-2-methylbenzonitrile] | 257 | 7.37 |
| CCN1CCC(N(C)c2cc3c(N[C@H](C)c4cccc(C#N)c4C)nnc(C)c3cn2)CC1 [Example 1-43, (R)-3-(1-((7-((1-ethylpiperidin-4-yl)(methyl)amino)-4-methylpyrido[3,4-d]pyridazin-1-yl)amino)ethyl)-2-methylbenzonitrile] | 42.2 | 1.28 |
| CCN1CCN(c2cc3c(N[C@H](C)c4cccc(C#N)c4C)nnc(C)c3cn2)CC1=O [Example 1-44, (R)-3-(1-((7-(4-ethyl-3-oxopiperazin-1-yl)-4-methylpyrido[3,4-d]pyridazin-1-yl)amino)ethyl)-2-methylbenzonitrile] | 44.6 | 1.9 |
| Cc1c(C#N)cccc1[C@@H](C)Nc1nnc(C)c2cnc(N3CC[C@H](O)C3)cc12 [Example 1-46, 3-((R)-1-((7-((S)-3-hydroxypyrrolidin-1-yl)-4-methylpyrido[3,4-d]pyridazin-1-yl)amino)ethyl)-2-methylbenzonitrile] | 71.3 | 1.95 |
| Cc1c(C#N)cccc1[C@@H](C)Nc1nnc(C)c2cnc(N3CC[C@@H](O)C3)cc12 [Example 1-47, 3-((R)-1-((7-((R)-3-hydroxypyrrolidin-1-yl)-4-methylpyrido[3,4-d]pyridazin-1-yl)amino)ethyl)-2-methylbenzonitrile] | 50.3 | 1.33 |
| CO[C@H]1CCN(c2cc3c(N[C@H](C)c4cccc(C#N)c4C)nnc(C)c3cn2)C1 [Example 1-48, 3-((R)-1-((7-((S)-3-methoxypyrrolidin-1-yl)-4-methylpyrido[3,4-d]pyridazin-1-yl)amino)ethyl)-2-methylbenzonitrile] | 39.2 | 2.02 |
| CO[C@@H]1CCN(c2cc3c(N[C@H](C)c4cccc(C#N)c4C)nnc(C)c3cn2)C1 [Example 1-49, 3-((R)-1-((7-((R)-3-methoxypyrrolidin-1-yl)-4-methylpyrido[3,4-d]pyridazin-1-yl)amino)ethyl)-2-methylbenzonitrile] | 36 | 2.01 |
| Cc1c(C#N)cccc1[C@@H](C)Nc1nnc(C)c2cnc(N3CC[C@H](NS(C)(=O)=O)C3)cc12 [Example 1-50, N-((S)-1-(1-(((R)-1-(3-cyano-2-methylphenyl)ethyl)amino)-4-methylpyrido[3,4-d]pyridazin-7-yl)pyrrolidin-3-yl)methanesulfonamide] | 602 | 2.07 |
| Cc1c(C#N)cccc1[C@@H](C)Nc1nnc(C)c2cnc(N(C)[C@H]3CCNC3)cc12 [Example 1-51, 2-methyl-3-((R)-1-((4-methyl-7-(methyl((S)-pyrrolidin-3-yl)amino)pyrido[3,4-d]pyridazin-1-yl)amino)ethyl)benzonitrile] | 275 | 0.867 |
| Cc1c(C#N)cccc1[C@@H](C)Nc1nnc(C)c2cnc(N(C)[C@@H]3CCNC3)cc12 [Example 1-52, 2-methyl-3-((R)-1-((4-methyl-7-(methyl((R)-pyrrolidin-3-yl)amino)pyrido[3,4-d]pyridazin-1-yl)amino)ethyl)benzonitrile] | 457 | 1.11 |
| Cc1c(C#N)cccc1[C@@H](C)Nc1nnc(C)c2cnc(N(C)[C@H]3CCCNC3)cc12 [Example 1-53, 2-methyl-3-((R)-1-((4-methyl-7-(methyl((S)-piperidin-3-yl)amino)pyrido[3,4-d]pyridazin-1-yl)amino)ethyl)benzonitrile] | 210 | 0.853 |
| Cc1c(C#N)cccc1[C@@H](C)Nc1nnc(C)c2cnc(N(C)[C@@H]3CCCNC3)cc12 [Example 1-54, 2-methyl-3-((R)-1-((4-methyl-7-(methyl((R)-piperidin-3-yl)amino)pyrido[3,4-d]pyridazin-1-yl)amino)ethyl)benzonitrile] | 142 | 1.2 |
| Cc1c(C#N)cccc1[C@@H](C)Nc1nnc(C)c2cnc(N(C)C[C@@H]3CCCN3)cc12 [Example 1-55, 2-methyl-3-((R)-1-((4-methyl-7-(methyl(((S)-pyrrolidin-2-yl)methyl)amino)pyrido[3,4-d]pyridazin-1-yl)amino)ethyl)benzonitrile] | 290 | 2.18 |
